Measured values reported in ChEMBL document CHEMBL1938265, “Synthesis and biological evaluation of novel indolocarbazoles with anti-angiogenic activity” (Eur J Med Chem, 2012).
Calls of active or inactive are those of the source. No cut-off for these calls is given here.

Assays:
ST486 = test: Antiproliferative activity against human ST486 cells after 48 to 72 hrs by MTT assay; format: functional, cell-based
LoVo [1] = test: Antiproliferative activity against human LoVo cells after 48 to 72 hrs by MTT assay; format: functional, cell-based
HUVEC [2] = test: Antiproliferative activity against human HUVEC after 48 to 72 hrs by MTT assay; format: functional, cell-based
DLD-1 [3] = test: Antiproliferative activity against human DLD1 cells after 48 to 72 hrs by MTT assay; format: functional, cell-based
HUVEC [4] = test: Antiangiogenic activity against HUVEC assessed as inhibition of capillary tube formation at 20 uM after 24 hrs by Matrigel assay; format: functional, cell-based; conditions: Homo sapiens
[5] = Antitumor activity against mouse LL/2 cells allografted in Lewis mouse assessed as decrease in lung metastasis number at 5 ug/ml, ip administered daily 24 hrs post implantation (reference value: 11.8 +/- 7.1 number); format: functional, Lewis lung carcinoma
[6] = Antitumor activity against mouse LL/2 cells allografted in Lewis mouse assessed as change in tumor weight at 5 ug/ml, ip administered daily 24 hrs post implantation (reference value: 7.1 +/- 1.1 g); format: functional, Lewis lung carcinoma
LoVo [7] = test: Selectivity ratio of IC50 for human LoVo cells to IC50 for HUVEC; format: functional
Mus musculus [8] = test: Toxicity in Lewis mouse allografted with mouse LL/2 cells assessed as change in body weight at 5 ug/ml, ip administered daily 24 hrs post implantation measured on day 18 (reference value: 22.7 +/- 0.2 g); format: organism-based; conditions: in vivo
HUVEC [9] = test: Antiangiogenic activity against HUVEC assessed as inhibition of capillary tube formation at 20 uM after 48 hrs by Matrigel assay; format: functional, cell-based; conditions: Homo sapiens
DLD-1 [10] = test: Selectivity ratio of IC50 for human DLD1 cells to IC50 for HUVEC; format: functional
[11] = Antitumor activity against mouse LL/2 cells allografted in Lewis mouse assessed as change in tumor weight at 4 mg/ml, ip administered daily 24 hrs post implantation (reference value: 7.1 +/- 1.1 g); format: functional, Lewis lung carcinoma
[12] = Antitumor activity against mouse LL/2 cells allografted in Lewis mouse assessed as decrease in lung metastasis number at 4 mg/ml, ip administered daily 24 hrs post implantation (reference value: 11.8 +/- 7.1 number); format: functional, Lewis lung carcinoma
Mus musculus [13] = test: Toxicity in Lewis mouse allografted with mouse LL/2 cells assessed as change in body weight at 4 mg/ml, ip administered daily 24 hrs post implantation measured on day 18 (reference value: 22.7 +/- 0.2 g); format: organism-based; conditions: in vivo

Row | Compound | IC50 (ST486) [nM] | IC50 (LoVo [1]) [µM] | IC50 (HUVEC [2]) [nM] | IC50 (DLD-1 [3]) [µM] | further results
1 | CN(C)CCN1C(=O)c2c(c3c4ccccc4n(CCOCCO)c3c3[nH]c4ccccc4c23)C1=O | 3000 | 0.3 | 100 | 20 | 
2 | CN(C)CCOCCn1c2ccccc2c2c3c(c4c5ccccc5[nH]c4c21)C(=O)N(CCN(C)C)C3=O.Cl.Cl | 4000 | 20 | 100 | 20 | Activity (HUVEC [4]): Active; Activity [5]: 9; Activity [6]: 7.6 g; Ratio IC50 (LoVo [7]): 200; Activity (Mus musculus [8]): 28.5 g; Activity (HUVEC [9]): Active; Ratio IC50 (DLD-1 [10]): 200
3 | O=C1NC(=O)c2c1c1c3ccccc3[nH]c1c1c2c2ccccc2n1CCOCCO | 100 | 4 | 10000 | 2 | 
4 | CN(C)CCN1C(=O)c2c(c3c4ccccc4[nH]c3c3[nH]c4ccccc4c23)C1=O | 1000 | 0.5 | 7000 | 3 | Activity (HUVEC [4]): Active; Activity [5]: 9.4; Activity [6]: 7.3 g; Activity (Mus musculus [8]): 27.29 g; Activity (HUVEC [9]): Active
5 | CN[C@@H]1C[C@H]2O[C@@](C)([C@@H]1OC)n1c3ccccc3c3c4c(c5c6ccccc6n2c5c31)C(=O)NC4 [STAUROSPORINE] | 7 |  |  |  | 
6 | CNCCOCCn1c2ccccc2c2c3c(c4c5ccccc5[nH]c4c21)C(=O)N(CCN(C)C)C3=O | 3000 | 6 | 300 | 7 | 
7 | CN(C)CCOCCn1c2ccccc2c2c3c(c4c5ccccc5[nH]c4c21)C(=O)NC3=O | 2000 |  | 2000 |  | 
8 | Cc1ccc(C(=O)Nc2ccc(S(=O)(=O)O)c3cc(S(=O)(=O)O)cc(S(=O)(=O)O)c23)cc1NC(=O)c1cccc(NC(=O)Nc2cccc(C(=O)Nc3cc(C(=O)Nc4ccc(S(=O)(=O)O)c5cc(S(=O)(=O)O)cc(S(=O)(=O)O)c45)ccc3C)c2)c1 [SURAMIN] |  |  |  |  | Activity [11]: 5.9 g; Activity [12]: 5; Activity (Mus musculus [13]): 25.5 g
